Earlier results on one molecule are cited in paper PMC7190335 (Science Advances, 2020).

The structures appear in SMILES notation.

In this series the target is T1, COUP-TFII (Homo sapiens, UniProt P24468).
T1 sequence (P24468 1-414): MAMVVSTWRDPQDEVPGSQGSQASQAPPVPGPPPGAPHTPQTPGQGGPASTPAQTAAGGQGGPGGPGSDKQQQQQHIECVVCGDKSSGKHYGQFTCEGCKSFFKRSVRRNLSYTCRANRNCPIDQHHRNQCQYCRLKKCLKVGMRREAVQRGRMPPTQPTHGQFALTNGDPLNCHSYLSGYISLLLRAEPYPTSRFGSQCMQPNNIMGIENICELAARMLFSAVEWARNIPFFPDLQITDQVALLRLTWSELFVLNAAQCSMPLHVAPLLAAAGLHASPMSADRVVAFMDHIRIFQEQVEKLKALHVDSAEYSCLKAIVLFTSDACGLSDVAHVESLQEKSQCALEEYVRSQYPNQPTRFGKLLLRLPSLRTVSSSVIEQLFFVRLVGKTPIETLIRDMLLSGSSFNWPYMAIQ

Take `COc1ccc(O)c2ccccc12` [4-methoxynaphthol compound, 4-methoxynaphthol]: the “concentration needed to reduce COUP-TFII activity” value was “up to 100 μM”.
